Test results reported in ChEMBL document CHEMBL5303767, “Data for DCP probe JNJ-4355” (2023).
Each block holds one compound with its values, some of them ahead of it. Calls of active or inactive are those of the source. The rule behind the calls is not given here.

Columns and labels:
[1] = molecular target: 5-hydroxytryptamine receptor 1A (Homo sapiens, UniProt P08908); assay: GPCRScan assay: inhibition of 5-HT1A; design: radioligand conc. used [nm] 0.5 – 1.0, parental cells stable CHO
[2] = molecular target: T1, 5-hydroxytryptamine receptor 5A (Homo sapiens, UniProt P47898); assay: GPCRScan assay: inhibition of 5-HT5A; design: radioligand conc. used [nm] 2.0 - 3.3, parental cells Flp-In CHO
T1 sequence (P47898 whole entry): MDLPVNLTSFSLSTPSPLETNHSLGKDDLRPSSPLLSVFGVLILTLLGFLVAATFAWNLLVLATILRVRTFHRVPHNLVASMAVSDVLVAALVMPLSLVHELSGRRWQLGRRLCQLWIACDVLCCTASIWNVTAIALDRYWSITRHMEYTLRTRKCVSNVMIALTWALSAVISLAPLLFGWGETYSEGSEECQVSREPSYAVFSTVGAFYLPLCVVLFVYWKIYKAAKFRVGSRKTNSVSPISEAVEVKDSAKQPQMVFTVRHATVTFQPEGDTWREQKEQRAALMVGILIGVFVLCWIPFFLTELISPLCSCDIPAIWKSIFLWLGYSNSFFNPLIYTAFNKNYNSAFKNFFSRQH

[3] = molecular target: T2, Sodium-dependent noradrenaline transporter (Homo sapiens, UniProt P23975); assay: GPCRScan assay: inhibition of NET; design: radioligand conc. used [nm] 1.3 – 5.0, parental cells stable HEK
T2 sequence (P23975 whole entry): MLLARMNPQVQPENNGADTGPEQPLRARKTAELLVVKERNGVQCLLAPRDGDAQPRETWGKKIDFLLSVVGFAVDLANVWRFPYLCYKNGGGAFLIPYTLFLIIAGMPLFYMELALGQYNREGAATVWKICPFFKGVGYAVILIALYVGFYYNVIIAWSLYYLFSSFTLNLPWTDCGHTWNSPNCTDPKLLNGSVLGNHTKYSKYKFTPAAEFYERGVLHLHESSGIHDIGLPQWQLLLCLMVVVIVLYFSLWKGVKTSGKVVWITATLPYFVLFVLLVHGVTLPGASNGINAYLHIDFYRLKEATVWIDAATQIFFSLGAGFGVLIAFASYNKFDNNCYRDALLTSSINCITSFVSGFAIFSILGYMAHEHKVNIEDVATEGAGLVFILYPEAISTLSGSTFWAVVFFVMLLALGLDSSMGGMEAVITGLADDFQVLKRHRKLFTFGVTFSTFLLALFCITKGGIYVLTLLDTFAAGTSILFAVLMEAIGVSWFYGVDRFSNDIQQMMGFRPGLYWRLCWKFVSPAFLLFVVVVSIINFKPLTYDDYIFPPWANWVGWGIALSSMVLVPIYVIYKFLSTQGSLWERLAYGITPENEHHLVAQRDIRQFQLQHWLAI

[4] = molecular target: T3, Sodium-dependent dopamine transporter (Homo sapiens, UniProt Q01959); assay: GPCRScan assay: inhibition of DAT; design: radioligand conc. used [nm] 3.6 – 16.0, parental cells stable HEK
T3 sequence (Q01959 whole entry): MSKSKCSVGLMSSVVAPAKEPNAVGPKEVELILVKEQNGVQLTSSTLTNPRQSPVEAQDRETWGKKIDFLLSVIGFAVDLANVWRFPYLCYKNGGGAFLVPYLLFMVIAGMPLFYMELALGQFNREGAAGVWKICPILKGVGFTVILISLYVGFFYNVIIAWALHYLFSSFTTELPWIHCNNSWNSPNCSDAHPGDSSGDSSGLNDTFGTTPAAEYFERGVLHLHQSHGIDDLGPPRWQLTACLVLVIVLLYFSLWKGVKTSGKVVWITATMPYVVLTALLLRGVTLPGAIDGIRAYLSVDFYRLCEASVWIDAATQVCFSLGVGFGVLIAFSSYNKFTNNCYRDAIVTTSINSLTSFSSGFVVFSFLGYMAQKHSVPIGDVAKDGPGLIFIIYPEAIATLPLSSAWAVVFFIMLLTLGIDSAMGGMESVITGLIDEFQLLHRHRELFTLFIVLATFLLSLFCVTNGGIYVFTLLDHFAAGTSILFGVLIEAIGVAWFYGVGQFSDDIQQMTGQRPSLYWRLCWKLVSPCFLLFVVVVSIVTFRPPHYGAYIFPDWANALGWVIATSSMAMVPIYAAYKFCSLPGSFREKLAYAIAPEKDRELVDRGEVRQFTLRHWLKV

[5] = molecular target: T4, Delta-type opioid receptor (Homo sapiens, UniProt P41143); assay: GPCRScan assay: inhibition of DOR; design: radioligand conc. used [nm] 1.0 – 2.0, parental cells stable HEK
[6] = molecular target: T5, Induced myeloid leukemia cell differentiation protein Mcl-1 (Homo sapiens, UniProt Q07820); assay: HTRF (MCL1)
[7] = molecular target: T5, Induced myeloid leukemia cell differentiation protein Mcl-1; assay: Caspase Glo MOLP-8 assay; type: functional, cell-based, MOLP8
[8] = molecular target: 5-hydroxytryptamine receptor 1A (Homo sapiens) (UniProt P08908); settings: Compound concentration 10.0 uM
[9] = molecular target: 5-hydroxytryptamine receptor 1B (Homo sapiens) (UniProt P28222); settings: Compound concentration 10.0 uM
[10] = molecular target: 5-hydroxytryptamine receptor 1D (Homo sapiens) (UniProt P28221); settings: Compound concentration 10.0 uM
[11] = molecular target: 5-hydroxytryptamine receptor 2A (Homo sapiens) (UniProt P28223); settings: Compound concentration 10.0 uM
[12] = molecular target: 5-hydroxytryptamine receptor 2B (Homo sapiens) (UniProt P41595); settings: Compound concentration 10.0 uM
[13] = molecular target: 5-hydroxytryptamine receptor 2C (Homo sapiens) (UniProt P28335); settings: Compound concentration 10.0 uM
[14] = molecular target: 5-hydroxytryptamine receptor 3A (Homo sapiens) (UniProt P46098); settings: Compound concentration 10.0 uM
[15] = molecular target: T1, 5-hydroxytryptamine receptor 5A; settings: Compound concentration 10.0 uM
[16] = molecular target: 5-hydroxytryptamine receptor 7 (Homo sapiens) (UniProt P34969); settings: Compound concentration 10.0 uM
[17] = molecular target: D(1A) dopamine receptor (Homo sapiens) (UniProt P21728); settings: Compound concentration 10.0 uM
Chain of D(1A) dopamine receptor (Homo sapiens) (P21728 whole entry): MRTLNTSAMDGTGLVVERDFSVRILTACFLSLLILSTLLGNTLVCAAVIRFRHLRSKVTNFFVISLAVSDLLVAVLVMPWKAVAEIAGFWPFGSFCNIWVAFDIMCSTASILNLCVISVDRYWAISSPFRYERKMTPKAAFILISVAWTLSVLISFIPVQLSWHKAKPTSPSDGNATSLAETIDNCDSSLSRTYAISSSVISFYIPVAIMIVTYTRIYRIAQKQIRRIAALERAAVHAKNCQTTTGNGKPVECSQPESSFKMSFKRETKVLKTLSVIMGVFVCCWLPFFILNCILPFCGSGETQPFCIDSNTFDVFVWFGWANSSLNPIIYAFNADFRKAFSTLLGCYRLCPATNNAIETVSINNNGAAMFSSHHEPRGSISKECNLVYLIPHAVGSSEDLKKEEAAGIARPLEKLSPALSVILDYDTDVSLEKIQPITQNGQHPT

[18] = molecular target: D(2) dopamine receptor (Homo sapiens) (UniProt P14416); settings: Compound concentration 10.0 uM
[19] = molecular target: D(3) dopamine receptor (Homo sapiens) (UniProt P35462); settings: Compound concentration 10.0 uM
[20] = molecular target: D(4) dopamine receptor (Homo sapiens) (UniProt P21917); settings: Compound concentration 10.0 uM
[21] = molecular target: D(1B) dopamine receptor (Homo sapiens) (UniProt P21918); settings: Compound concentration 10.0 uM
[22] = molecular target: Sodium-dependent serotonin transporter (Homo sapiens) (UniProt P31645); settings: Compound concentration 10.0 uM
Chain of Sodium-dependent serotonin transporter (Homo sapiens) (P31645 whole entry, looked up): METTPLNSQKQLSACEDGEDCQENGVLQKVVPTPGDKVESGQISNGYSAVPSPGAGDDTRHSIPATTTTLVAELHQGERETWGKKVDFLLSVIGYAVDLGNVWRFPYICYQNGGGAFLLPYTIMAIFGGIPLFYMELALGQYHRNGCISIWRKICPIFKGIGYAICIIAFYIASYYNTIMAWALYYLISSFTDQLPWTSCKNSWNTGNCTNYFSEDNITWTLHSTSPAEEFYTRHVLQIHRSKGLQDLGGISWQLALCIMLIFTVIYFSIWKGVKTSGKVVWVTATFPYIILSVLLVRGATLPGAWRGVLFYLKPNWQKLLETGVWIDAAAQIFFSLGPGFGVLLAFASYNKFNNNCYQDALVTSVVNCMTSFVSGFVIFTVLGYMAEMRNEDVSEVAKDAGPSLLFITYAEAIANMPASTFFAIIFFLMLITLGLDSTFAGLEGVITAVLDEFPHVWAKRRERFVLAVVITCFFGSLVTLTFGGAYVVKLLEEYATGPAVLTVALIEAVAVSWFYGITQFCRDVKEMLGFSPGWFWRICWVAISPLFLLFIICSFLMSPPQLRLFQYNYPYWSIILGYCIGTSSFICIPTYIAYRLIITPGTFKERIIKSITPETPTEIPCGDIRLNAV

[23] = molecular target: T2, Sodium-dependent noradrenaline transporter; settings: Compound concentration 10.0 uM
[24] = molecular target: T3, Sodium-dependent dopamine transporter; settings: Compound concentration 10.0 uM
Mu-type opioid receptor [25] = molecular target: T6, Mu-type opioid receptor (Homo sapiens, UniProt P35372); settings: Compound concentration 10.0 uM
T6 sequence (P35372 whole entry): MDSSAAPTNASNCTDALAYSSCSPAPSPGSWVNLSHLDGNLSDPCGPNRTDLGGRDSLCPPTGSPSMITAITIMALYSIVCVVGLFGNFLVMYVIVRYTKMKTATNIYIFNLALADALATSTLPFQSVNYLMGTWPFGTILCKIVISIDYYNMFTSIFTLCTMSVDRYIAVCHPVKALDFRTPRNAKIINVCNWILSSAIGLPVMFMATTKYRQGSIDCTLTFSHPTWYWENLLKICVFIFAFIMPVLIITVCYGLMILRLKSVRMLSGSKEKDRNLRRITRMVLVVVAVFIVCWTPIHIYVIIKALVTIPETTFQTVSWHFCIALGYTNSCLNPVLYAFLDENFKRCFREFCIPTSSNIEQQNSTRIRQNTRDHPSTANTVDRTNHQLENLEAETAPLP

[26] = molecular target: T4, Delta-type opioid receptor; settings: Compound concentration 10.0 uM
[27] = molecular target: Kappa-type opioid receptor (Homo sapiens) (UniProt P41145); settings: Compound concentration 10.0 uM
Chain of Kappa-type opioid receptor (Homo sapiens) (P41145 whole entry): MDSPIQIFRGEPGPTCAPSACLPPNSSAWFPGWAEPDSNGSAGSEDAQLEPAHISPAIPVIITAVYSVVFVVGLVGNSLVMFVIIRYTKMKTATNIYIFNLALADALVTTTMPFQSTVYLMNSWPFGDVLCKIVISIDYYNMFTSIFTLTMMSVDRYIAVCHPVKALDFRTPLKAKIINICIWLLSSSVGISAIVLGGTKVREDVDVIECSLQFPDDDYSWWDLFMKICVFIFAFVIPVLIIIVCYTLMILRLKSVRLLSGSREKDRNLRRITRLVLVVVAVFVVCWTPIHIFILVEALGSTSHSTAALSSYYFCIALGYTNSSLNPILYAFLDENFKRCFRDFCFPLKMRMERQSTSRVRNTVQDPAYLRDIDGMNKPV

[28] = molecular target: Histamine H1 receptor (Homo sapiens) (UniProt P35367); settings: Compound concentration 10.0 uM
[29] = molecular target: Histamine H2 receptor (Homo sapiens) (UniProt P25021); settings: Compound concentration 10.0 uM
Chain of Histamine H2 receptor (Homo sapiens) (P25021 whole entry): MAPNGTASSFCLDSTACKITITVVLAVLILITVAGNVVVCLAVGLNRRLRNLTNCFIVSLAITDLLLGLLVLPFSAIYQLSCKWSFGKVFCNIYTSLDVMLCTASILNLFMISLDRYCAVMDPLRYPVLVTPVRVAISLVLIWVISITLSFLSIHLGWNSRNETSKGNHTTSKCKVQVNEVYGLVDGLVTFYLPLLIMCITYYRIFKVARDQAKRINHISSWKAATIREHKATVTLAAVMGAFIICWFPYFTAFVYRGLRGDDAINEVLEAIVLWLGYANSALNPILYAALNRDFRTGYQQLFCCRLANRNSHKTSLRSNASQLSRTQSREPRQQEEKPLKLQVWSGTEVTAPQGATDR

[30] = molecular target: Histamine H3 receptor (Homo sapiens) (UniProt Q9Y5N1); settings: Compound concentration 10.0 uM
[31] = molecular target: Alpha-1A adrenergic receptor (Homo sapiens) (UniProt P35348); settings: Compound concentration 10.0 uM
[32] = molecular target: Alpha-1B adrenergic receptor (Homo sapiens) (UniProt P35368); settings: Compound concentration 10.0 uM
[33] = molecular target: Alpha-2A adrenergic receptor (Homo sapiens) (UniProt P08913); settings: Compound concentration 10.0 uM
[34] = molecular target: Alpha-2B adrenergic receptor (Homo sapiens) (UniProt P18089); settings: Compound concentration 10.0 uM
[35] = molecular target: Alpha-2C adrenergic receptor (Homo sapiens) (UniProt P18825); settings: Compound concentration 10.0 uM
Chain of Alpha-2C adrenergic receptor (Homo sapiens) (P18825 whole entry): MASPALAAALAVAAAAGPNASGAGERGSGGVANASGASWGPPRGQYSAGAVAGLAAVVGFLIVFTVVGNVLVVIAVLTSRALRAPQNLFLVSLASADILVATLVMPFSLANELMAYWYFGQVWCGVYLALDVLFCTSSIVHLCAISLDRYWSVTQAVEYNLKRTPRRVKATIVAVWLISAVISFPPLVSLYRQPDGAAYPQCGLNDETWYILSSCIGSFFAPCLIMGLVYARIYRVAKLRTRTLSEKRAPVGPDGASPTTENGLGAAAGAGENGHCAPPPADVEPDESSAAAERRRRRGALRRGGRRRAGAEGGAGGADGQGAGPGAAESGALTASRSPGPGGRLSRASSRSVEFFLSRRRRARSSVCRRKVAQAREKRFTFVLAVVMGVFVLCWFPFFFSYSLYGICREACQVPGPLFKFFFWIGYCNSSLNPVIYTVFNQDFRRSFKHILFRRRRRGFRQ

[36] = molecular target: Beta-1 adrenergic receptor (Homo sapiens) (UniProt P08588); settings: Compound concentration 10.0 uM
[37] = molecular target: Beta-2 adrenergic receptor (Homo sapiens) (UniProt P07550); settings: Compound concentration 10.0 uM
[38] = molecular target: Muscarinic acetylcholine receptor M1 (Homo sapiens) (UniProt P11229); settings: Compound concentration 10.0 uM
Chain of Muscarinic acetylcholine receptor M1 (Homo sapiens) (P11229 whole entry): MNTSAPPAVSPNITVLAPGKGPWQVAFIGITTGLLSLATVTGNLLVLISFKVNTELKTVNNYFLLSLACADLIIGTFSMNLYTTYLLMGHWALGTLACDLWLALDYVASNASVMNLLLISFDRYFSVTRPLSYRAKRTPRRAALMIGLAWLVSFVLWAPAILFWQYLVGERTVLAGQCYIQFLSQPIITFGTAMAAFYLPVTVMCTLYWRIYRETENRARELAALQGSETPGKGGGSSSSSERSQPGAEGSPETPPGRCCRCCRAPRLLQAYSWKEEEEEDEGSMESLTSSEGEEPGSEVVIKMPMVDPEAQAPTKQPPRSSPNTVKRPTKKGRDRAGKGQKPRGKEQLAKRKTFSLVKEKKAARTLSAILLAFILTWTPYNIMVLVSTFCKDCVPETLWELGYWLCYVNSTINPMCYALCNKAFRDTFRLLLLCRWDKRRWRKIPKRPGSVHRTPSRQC

[39] = molecular target: Muscarinic acetylcholine receptor M2 (Homo sapiens) (UniProt P08172); settings: Compound concentration 10.0 uM
[40] = molecular target: Muscarinic acetylcholine receptor M3 (Homo sapiens) (UniProt P20309); settings: Compound concentration 10.0 uM
[41] = molecular target: Muscarinic acetylcholine receptor M4 (Homo sapiens) (UniProt P08173); settings: Compound concentration 10.0 uM
[42] = molecular target: Muscarinic acetylcholine receptor M5 (Homo sapiens) (UniProt P08912); settings: Compound concentration 10.0 uM
[43] = molecular target: Beta-3 adrenergic receptor (Homo sapiens) (UniProt P13945); settings: Compound concentration 10.0 uM
Rattus norvegicus = species: Rattus norvegicus; settings: Compound concentration 10.0 uM
[44] = molecular target: Alpha-1D adrenergic receptor (Homo sapiens) (UniProt P25100); settings: Compound concentration 10.0 uM
[45] = molecular target: Sigma intracellular receptor 2 (Homo sapiens) (UniProt Q5BJF2); settings: Compound concentration 10.0 uM
Chain of Sigma intracellular receptor 2 (Homo sapiens) (Q5BJF2 whole entry): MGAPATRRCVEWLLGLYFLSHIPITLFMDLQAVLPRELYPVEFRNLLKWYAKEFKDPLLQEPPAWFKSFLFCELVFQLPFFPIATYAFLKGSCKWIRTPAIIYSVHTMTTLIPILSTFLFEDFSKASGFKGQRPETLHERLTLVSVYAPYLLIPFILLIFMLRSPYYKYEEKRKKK

[46] = molecular target: Sigma non-opioid intracellular receptor 1 (Homo sapiens) (UniProt Q99720); settings: Compound concentration 10.0 uM
Mu-type opioid receptor [47] = molecular target: T6, Mu-type opioid receptor; assay: GPCRScan assay: inhibition of MOR; design: radioligand conc. used [nm] 1.0 – 2.0, parental cells stable HEK
[48] = molecular target: Apoptosis regulator Bcl-2 (Homo sapiens, UniProt P10415); assay: HTRF (BCL2); type: functional
Bcl-2-related protein A1 = Bcl-2-related protein A1 (Homo sapiens, UniProt Q16548); assay: HTRF (BCL2A1)
Bcl-2-like protein 1 = Bcl-2-like protein 1 (Homo sapiens, UniProt Q07817); assay: HTRF (BCL2L1)
EOL1 = assay: EOL-1 cell line Proliferation assay; type: functional, Homo sapiens
NOMO-1 = assay: NOMO-1 cell line Proliferation assay; type: functional, Homo sapiens
MOLM-13 = assay: MOLM-13 cell line Proliferation assay; type: functional, Homo sapiens
MV4-11 = assay: MV4-11 cell line Proliferation assay; type: functional, Homo sapiens
THP-1 = assay: THP-1 cell line Proliferation assay; type: functional, Homo sapiens
OCI-AML2 = assay: OCI-AML-2 cell line Proliferation assay; type: functional, Homo sapiens
SUD4 = assay: SU-DHL-4 cell line Proliferation assay; type: functional, Homo sapiens
Mino = assay: MINO cell line Proliferation assay; type: functional, Homo sapiens
MOLP-8 = assay: MOLP8 cell line Proliferation assay; type: functional, Homo sapiens
KMS-12-PE [49] = assay: (§1) KMS-12-PE cell line Proliferation assay; type: functional, Homo sapiens
KMS-12-PE [50] = assay: as §1; type: functional, Homo sapiens; remark: listed apart in the source
KMS-12-PE [51] = assay: KMS-12-PE MCL-1 KO cell line Proliferation assay; type: functional, Homo sapiens
KMS-12-PE [52] = assay: KMS-12-PE Bax/Bak dKO cell line Proliferation assay; type: functional, Homo sapiens

Ki ([1]; read-out: Ki): 1700 nM
Ki ([1]; read-out: pKi (converted)): 1580 nM
Ki ([2]; read-out: Ki): 2470 nM
Ki ([2]; read-out: pKi (converted)): 2450 nM
Ki ([3]; read-out: Ki): 2880 nM
Ki ([3]; read-out: pKi (converted)): 2750 nM
Ki ([4]; read-out: Ki): 3.72 µM
Ki ([4]; read-out: pKi (converted)): 3.55 µM
Ki ([5]; read-out: Ki): 3230 nM
Ki ([5]; read-out: pKi (converted)): 2630 nM
Ki [6]: 115 nM (not active)
AC50 [7]: > 30 µM (not active)
inhibition [8]: 76.5%
inhibition [9]: 26%
inhibition [10]: 31.4%
inhibition [11]: 10.6%
inhibition [12]: 6.21%
inhibition [13]: 7.75%
inhibition [14]: 8.89%
inhibition [15]: 54.5%
inhibition [16]: 19%
inhibition [17]: 34.7%
inhibition [18]: -6.49%
inhibition [19]: 18.2%
inhibition [20]: 3.35%
inhibition [21]: 51.7%
inhibition [22]: 11.4%
inhibition [23]: 58.9%
inhibition [24]: 57.7%
inhibition (Mu-type opioid receptor [25]): 10.4%
inhibition [26]: 78%
inhibition [27]: 36.6%
inhibition [28]: 10.8%
inhibition [29]: 11.6%
inhibition [30]: -6.18%
inhibition [31]: -4.41%
inhibition [32]: -0.92%
inhibition [33]: 6.61%
inhibition [34]: 29.5%
inhibition [35]: 7%
inhibition [36]: -3.32%
inhibition [37]: -3.65%
inhibition [38]: 1.89%
inhibition [39]: 4.4%
inhibition [40]: -1.43%
inhibition [41]: -9.96%
inhibition [42]: 2.15%
inhibition [43]: 14.2%
inhibition (Rattus norvegicus): 11.8%
inhibition [44]: 1.09%
inhibition [45]: 23.4%
inhibition [46]: 30.7%
SMILES: COCCOCCn1nc(C)c2c1CSCc1cc(n(C)n1)CCc1cc(c3ccc(F)cc3c1)OCCCn1c(C(=O)O)c(C)c3c-2c(Cl)ccc31

Ki (Mu-type opioid receptor [47]): > 10 µM
pKi (Mu-type opioid receptor [47]): < 5
Ki ([5]; read-out: Ki): 871 nM
Ki ([5]; read-out: pKi (converted)): 724 nM
Ki [6]: 0.015 nM (active)
AC50 [7]: 0.012 µM (active)
Ki [48]: > 3.75 µM (not active)
Ki (Bcl-2-related protein A1): > 5 µM (not active)
Ki (Bcl-2-like protein 1): > 5 µM (not active)
inhibition [8]: 47.8%
inhibition [9]: 9.97%
inhibition [10]: -6.42%
inhibition [11]: -0.64%
inhibition [12]: -1.5%
inhibition [13]: 1.66%
inhibition [14]: 6.57%
inhibition [15]: 28.5%
inhibition [16]: 20.1%
inhibition [17]: 10.4%
inhibition [18]: -6.66%
inhibition [19]: 13.5%
inhibition [20]: 2.7%
inhibition [21]: 26.2%
inhibition [22]: 11.2%
inhibition [23]: 30.1%
inhibition [24]: 49.5%
inhibition [26]: 61.9%
inhibition [27]: 0.68%
inhibition [28]: -0.28%
inhibition [29]: 13.1%
inhibition [30]: 4.96%
inhibition [32]: -1.94%
inhibition [33]: 21.5%
inhibition [34]: 6.6%
inhibition [35]: 3.84%
inhibition [37]: 4.71%
inhibition [38]: 4.67%
inhibition [39]: -0.94%
inhibition [40]: -0.43%
inhibition [42]: -9.51%
inhibition [43]: 24.5%
inhibition (Rattus norvegicus): 18.7%
inhibition [44]: 2.28%
inhibition [45]: 17.4%
inhibition [46]: 20.6%
SMILES: COCCOCCn1nc2c(c1C)-c1c(Cl)ccc3c1c(C)c(C(=O)O)n3CCCOc1cc(cc3c(F)c(Cl)ccc13)CCc1cc(nn1C)CSC2
Cell Proliferation AC50 (EOL1): 2.1 nM
Cell Proliferation AC50 (NOMO-1): 4.8 nM
Cell Proliferation AC50 (MOLM-13): 10 nM
Cell Proliferation AC50 (MV4-11): 14 nM
Cell Proliferation AC50 (THP-1): 27 nM
Cell Proliferation AC50 (OCI-AML2): 48 nM
Cell Proliferation AC50 (SUD4): 21 nM
Cell Proliferation AC50 (Mino): 73 nM
Cell Proliferation AC50 (MOLP-8): 8.7 nM
Cell Proliferation AC50 (KMS-12-PE [49]): 69 nM
Cell Proliferation AC50 (KMS-12-PE [50]): 79 nM
Cell Proliferation AC50 (KMS-12-PE [51]): >30 µM
Cell Proliferation AC50 (KMS-12-PE [52]): >30 µM
